Results reported in publication PMC12349723, “Computationally accelerated identification of P-glycoprotein inhibitors” (PLOS One, 2025).
Several values for one entry are separate records, joined by “and”; a condition that tells them apart may be missing. Identical values can stand only once. Like-named read-outs stand apart in the source and are kept apart here.

Experiments:
[1] = system: DU145-TXR cells; assay: MTT viability assay, reversal of MDR (re-sensitization to paclitaxel) in P-gp overexpressing DU145-TXR cells; format: cell-based, human; details: for % Survival, mean / % Survival: 15 µM compound + 500 nM PTX (Paclitaxel, Taxol); for % Survival, mean / % Survival / viability at 15 µM: DU145-TXR; for Re-sensitization of DU145-TXR cells to PTX (reversal of MDR): 15 µM compound with or without 500 nM PTX, 48 h, MTT, re-sensitization = 30% or greater decrease in cell viability; for viability at 15 µM: Homo sapiens, 15 µM Compound Alone
Protocol: (§1) The chemotherapeutic sensitive DU145 human prostate cancer cells and the multidrug resistant sub-line, DU145-TXR, were generous gifts from Dr. Evan Keller (University of Michigan, Ann Arbor, MI). The MDR, P-gp overexpressing DU145-TXR cells were maintained under positive selection pressure by supplementing complete medium with 10 nM paclitaxel (Acros Organics, NJ). In addition to the aforementioned cell lines, the chemotherapeutic sensitive A2780 ovarian cancer cells (93112519, Sigma) and the multidrug resistant A2780-ADR (93112520, Sigma) were maintained in complete RPMI media consisting of RPMI-1640 with L-glutamine, 10% fetal bovine serum (FBS; Corning), 100 U/mL penicillin and 100 μg/mL streptomycin in a humidified incubator at 37 °C and 5% CO2. The MDR, P-gp overexpressing A2780-ADR cell line was maintained under positive selection pressure by supplementing complete medium with 100 nM doxorubicin (Fisher Scientific, NJ). The non-cancerous HFL1 (human lung fibroblast) cell line cell line was a generous gift from Dr. Robert Harrod (Southern Methodist University, Dallas, TX) and was maintained in complete F12K media consisting of F12K with 10% fetal bovine serum, 100 U/mL penicillin, and 100 µg/mL streptomycin (Gibco). Flasks and 96 well plates that were used with the non-cancerous line HFL1 were pre-treated with 0.1 mg/ml Collagen Type 1 (Gibco) and rinsed with PBS (Fisher).
(§2) Culture of the DU145, DU145-TXR, and HFL1 cell lines was performed as described in [8]. Culture of the A2780 and A2780-ADR cell lines was performed as described in [9]. MTT assays were performed as described in [8] with minor modifications. LC-MS/MS accumulation assays were performed as described in {Nanayakkara, 2018 #173} [9] with some modifications. […] The inhibitor concentration was lowered to 15 µM here, as the goal of the study was to identify compounds that were effective in reversing MDR at low concentrations, and to determine if the expanded virtual-assisted methods improved on our first-draft attempt. Compounds 56–98 were pre-screened using Resazurin cell viability assays: cells were incubated with 15 µM compound with or without 500 nM PTX for 48 hours, after which cell survival was assessed similar to [39]. Data represent the mean of two separate experiments, with n = 3 samples per experiment (n = 6 total) (S4 Table). The top performing compounds from this initial screen were re-tested with MTT viability assays against DU145-TXR cells, as described below.
(§3) MTT assays measure the reduction of yellow, water soluble 3-(4,5-dimethylthiazol-2-yl)-2,5-diphenyltetrazolium bromide (MTT) to blue, insoluble formazan crystals by cellular reductase processes in living cells. Cells were trypsinized from monolayers and seeded in complete medium in 96 well plates. Cancerous cell lines (DU145, DU145-TXR, A2780, A2780-ADR) were seeded at 3,000 cells per well in complete RPMI medium. The non-cancerous HFL1 line was seeded at 4,000 cells per well in complete F12K medium, in collagen-treated plates (Collagen Type 1, Gibco). Cells were incubated with experimental compounds for 48 hours at 37 °C and 5% CO2 in a humidified incubator. At 48 hours, MTT was added (20 µL/well of 5 mg/mL MTT in PBS) to each well. After incubation for 4 hours, the media was removed, and the formazan crystals were dissolved in 100 µL DMSO per well. Plates containing the semi-adherent A2780 or A2780-ADR lines were spun at 1400 rpm for 3 minutes prior to aspiration of media, and the addition of DMSO. Plates were shaken for 10 minutes at 500 rpm on an Orbital shaker (LabDoctor from MidSci, St Louis, MO). The absorbance was measured at 570 nm using a Bio-Tek Cytation 5 (Bio-Tek, Winooski, VT). The measured absorbance value was correlated with the number of metabolically active cells in that well, corrected for absorbance of media. […]

[2] = system: A2780-ADR cells; assay: MTT viability assay, reversal of MDR in P-gp overexpressing A2780-ADR cells; format: cell-based, human; details: for Mean % Survival / % Survival (individual sample) / viability at 15 µM: A2780-ADR cells; for viability at 15 µM: Homo sapiens, A2780 ADR; for Reversal of MDR in A2780-ADR cells: 15 µM compound with or without 500 nM PTX, 48 h, MTT
Protocol: as §1, §2, §3

[3] = target: T1, P-gp (Homo sapiens, UniProt P08183); assay: Top Hit classification from combined in vitro criteria; details: reverse MDR, do not increase PTX toxicity in chemo-sensitive cancer cells, non-toxic to noncancerous cells, not P-gp substrates
T1 construct: The MDR, P-gp overexpressing DU145-TXR cells were maintained under positive selection pressure; endogenous in cells; host or cells: DU145-TXR (paclitaxel-resistant sub-line of DU145 human prostate cancer cells)

[4] = mean of 8 samples, read-out: % Survival, mean
[5] = trial 1, sample 1, read-out: % Survival
[6] = trial 1, sample 2, read-out: % Survival
[7] = trial 1, sample 3, read-out: % Survival
[8] = trial 1, sample 4, read-out: % Survival
[9] = trial 2, sample 1, read-out: % Survival
[10] = trial 2, sample 2, read-out: % Survival
[11] = trial 2, sample 3, read-out: % Survival
[12] = trial 2, sample 4, read-out: % Survival
[13] = 15 µM compound + 500 nM PTX, mean of 12 samples
[14] = 15 µM compound alone, single samples (trials 1-3, samples 1-4)
[15] = 15 µM compound alone, mean of 12 samples, read-out: Mean % Survival
[16] = 15 µM compound + 500 nM PTX, single samples (trials 1-3, samples 1-4)

T1 sequence (P08183 whole entry): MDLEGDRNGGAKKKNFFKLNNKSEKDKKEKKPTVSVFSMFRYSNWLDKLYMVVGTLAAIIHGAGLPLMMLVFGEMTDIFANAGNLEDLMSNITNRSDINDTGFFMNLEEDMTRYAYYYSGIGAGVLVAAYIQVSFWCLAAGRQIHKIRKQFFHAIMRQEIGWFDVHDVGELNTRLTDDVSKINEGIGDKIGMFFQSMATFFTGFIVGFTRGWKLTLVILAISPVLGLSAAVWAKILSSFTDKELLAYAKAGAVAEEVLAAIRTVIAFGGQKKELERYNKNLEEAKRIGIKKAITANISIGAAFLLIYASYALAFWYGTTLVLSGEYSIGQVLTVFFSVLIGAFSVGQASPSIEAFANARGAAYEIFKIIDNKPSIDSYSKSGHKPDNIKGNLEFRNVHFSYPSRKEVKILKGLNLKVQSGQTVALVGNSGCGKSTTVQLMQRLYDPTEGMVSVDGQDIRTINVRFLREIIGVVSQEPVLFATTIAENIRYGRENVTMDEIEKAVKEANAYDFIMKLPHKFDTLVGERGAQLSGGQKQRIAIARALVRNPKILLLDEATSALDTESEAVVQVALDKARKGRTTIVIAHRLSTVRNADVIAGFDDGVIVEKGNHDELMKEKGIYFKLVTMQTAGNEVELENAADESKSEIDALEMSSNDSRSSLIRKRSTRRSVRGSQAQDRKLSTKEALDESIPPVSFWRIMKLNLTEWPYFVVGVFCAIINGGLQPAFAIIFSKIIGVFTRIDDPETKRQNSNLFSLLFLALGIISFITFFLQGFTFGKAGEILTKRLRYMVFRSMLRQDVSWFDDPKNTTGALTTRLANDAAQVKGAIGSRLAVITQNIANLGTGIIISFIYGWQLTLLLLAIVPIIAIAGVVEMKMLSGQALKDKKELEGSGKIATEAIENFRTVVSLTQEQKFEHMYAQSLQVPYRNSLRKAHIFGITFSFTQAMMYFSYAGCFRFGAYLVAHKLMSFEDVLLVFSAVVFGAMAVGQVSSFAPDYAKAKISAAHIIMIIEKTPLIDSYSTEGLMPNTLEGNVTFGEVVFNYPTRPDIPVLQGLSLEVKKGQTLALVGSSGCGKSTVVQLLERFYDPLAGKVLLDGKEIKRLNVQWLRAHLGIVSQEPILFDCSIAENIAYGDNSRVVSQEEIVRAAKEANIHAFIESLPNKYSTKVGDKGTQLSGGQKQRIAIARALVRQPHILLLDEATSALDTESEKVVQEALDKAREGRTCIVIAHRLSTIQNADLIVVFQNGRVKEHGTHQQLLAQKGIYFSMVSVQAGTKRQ

Row | SMILES | % Survival, mean ([1]; mean of 8 samples) [%] | % Survival ([1]; trial 1, sample 1) [%] | % Survival ([1]; trial 1, sample 2) [%] | % Survival ([1]; trial 1, sample 3) [%] | % Survival ([1]; trial 1, sample 4) [%] | % Survival ([1]; trial 2, sample 1) [%] | % Survival ([1]; trial 2, sample 2) [%] | % Survival ([1]; trial 2, sample 3) [%] | % Survival ([1]; trial 2, sample 4) [%] | Re-sensitization of DU145-TXR cells to PTX (reversal of MDR) [1] | viability at 15 µM [1, 4] [%] | viability at 15 µM [1, 5] [%] | viability at 15 µM [1, 6] [%] | viability at 15 µM [1, 7] [%] | viability at 15 µM [1, 8] [%] | viability at 15 µM [1, 9] [%] | viability at 15 µM [1, 10] [%] | viability at 15 µM [1, 11] [%] | viability at 15 µM [1, 12] [%] | Top Hit [3] | also measured
1 | Cn1cnnc1SCc1c(C(=O)O)nnn1-c1nonc1N [Compound 59, Cn1cnnc1SCc1c(nnn1-c1nonc1N)C(O)=O] | 114.8 | 116 | 115 | 139 | 150 | 95 | 97 | 95 | 111 | did not reverse MDR in DU145-TXR cells | 107 | 132 | 105 | 116 | 103 | 103 | 102 | 99 | 99 | No | Mean % Survival [2, 13]: 83.9%; % Survival (individual sample) [2, 14]: 98% and 96%; viability at 15 µM [2, 15]: 93.1%; viability at 15 µM ([2]; 15 µM compound alone, single samples (trials 1-3, samples 1-4), read-out: % Survival (individual sample)): 95%
2 | O=C(c1cc2ccccc2[nH]1)N1CCN(S(=O)(=O)c2cccc3nonc23)CC1 [Compound 66, O=C(N1CCN(CC1)S(=O)(=O)c1cccc2nonc12)c1cc2ccccc2[nH]1] | 81.6 | 89 | 94 | 92 | 90 | 73 | 76 | 68 | 70 |  | 84.2 | 87 | 96 | 92 | 90 | 76 | 73 | 78 | 82 | No | 
3 | O=C(c1nc(-c2ccc3cc[nH]c3c2)no1)N1CCN(c2nsc3ccccc23)CC1 [Compound 70, O=C(N1CCN(CC1)c1nsc2ccccc12)c1nc(no1)-c1ccc2cc[nH]c2c1] | 47.0 | 51 | 55 | 50 | 54 | 41 | 36 | 46 | 43 | re-sensitized DU145-TXR cells to PTX | 91.3 | 92 | 103 | 101 | 96 | 90 | 83 | 85 | 80 | Yes | Reversal of MDR in A2780-ADR cells [2]: reversed MDR in A2780-ADR cells; Mean % Survival [2, 13]: 62.6%; % Survival (individual sample) [2, 16]: 62% and 59% and 61%; % Survival (individual sample) [2, 14]: 116%; viability at 15 µM [2, 15]: 114%
4 | COc1ccc(OC)c(NC(=O)c2nnn(-c3ccc4noc(-c5ccccc5)c4c3)c2C)c1 [Compound 71, COc1ccc(OC)c(NC(=O)c2nnn(c2C)-c2ccc3noc(-c4ccccc4)c3c2)c1] | 41.6 | 48 | 45 | 45 | 51 | 33 | 33 | 36 | 42 |  | 33.8 | 44 | 33 | 39 | 41 | 36 | 25 | 28 | 25 | No | 
5 | Cc1onc(-c2ccccc2)c1-c1nnc(Cn2cnc3c(oc4ccccc43)c2=O)o1 [Compound 78, Cc1onc(c1-c1nnc(Cn2cnc3c4ccccc4oc3c2=O)o1)-c1ccccc1] | 40.6 | 40 | 45 | 44 | 45 | 34 | 40 | 35 | 41 | re-sensitized DU145-TXR cells to PTX | 93.3 | 90 | 107 | 99 | 93 | 91 | 89 | 93 | 83 | Yes | Reversal of MDR in A2780-ADR cells [2]: reversed MDR in A2780-ADR cells; Mean % Survival [2, 13]: 41.5%; % Survival (individual sample) [2, 16]: 48% and 26%; % Survival (individual sample) [2, 14]: 81% and 88%; viability at 15 µM [2, 15]: 82.7%
